In patent US6900008B2, “Methods and formulations for minimizing spasticity in blood vessel grafts” (Emory University, priority 2001, dated 2005):
Marks after values point to notes of the source that are not given here.

Key:
[1] = system: canine radial artery segments; assay: Phenylephrine-induced contraction of pretreated canine radial artery segments in organ chambers; type: cell-based; conditions: for Constriction response to the maximum concentration of phenylephrine, % of KCl response: KCl 30 mmol/L
Protocol: (§1) Canine radial arteries were harvested without pedicles, and incubated in control buffer or solutions of papavarine (10^−6M), 2, 3-butadione monoxime (BDM, 10^−6M) (a putative protein phosphatase) or phenoxybenzamine (10^−6M) for a period of 30 minutes. The arteries were then washed with buffer and stored in a drug-free culture medium for a set time period (2 hours, 24 hours or 48 hours per example). After storage, vasopressors norepinephrine or phenylephrine were added at incremental concentrations ranging from 0.7 to 3.5 μmol/L (norepinephrine) or 0.300 to 1.5 μmol/L (phenylephrine) to all arterial samples to attempt to induce spasticity or vasoconstriction. The degree of vasoconstriction was then quantified in organ chambers. The responses of the arterial samples to norepinephrine or phenylephrine were compared with spasticity or constriction with receptor-independent potassium chloride (KCl) at 30 mmol/L.
(§2) The maximum responses of untreated and treated radial artery segments of KCl, phenylephrine and norepinephrine (in grams of tension) are summarized in Table 1. The constriction (contraction) responses to phenylephrine and norepinephrine given below are represented as a percentage of the responses to KCl, i.e. 100×(grams tension norepinephrine/grams tension KCl).

[2] = system: canine radial artery segments; assay: Norepinephrine-induced contraction of pretreated canine radial artery segments in organ chambers; type: cell-based; conditions: for Maximal constriction response to norepinephrine, % of KCl response: KCl 30 mmol/L
Protocol: as §1, §2

[3] = system: radial artery segments (endothelium); assay: Endothelial relaxation response to acetylcholine of stored radial artery segments; type: cell-based, canine
Text: The endothelium contributes to the overall vascular tone by tonic release of autacoids such as nitric oxide among other vasoactive substances. In addition, any attenuation of function related to autacoid release by phenoxybenzamine or its diluents would be undesirable.

[4] = system: human radial artery segments; assay: Norepinephrine-induced vasoconstriction of human radial artery rings in organ chambers; type: cell-based
Protocol: (§3) Radial artery (RA) segments were obtained from patients having elective coronary artery bypass grafting with or without cardiopulmonary bypass at the Crawford Long Hospital of Emory University. A modified Allen's test was performed to assess the adequacy of collateral circulation to the hand preoperatively. The RA was harvested with its pedicle containing the venae comitantes, perivascular fat and areolar tissue (no fasciotomy) using a “no-touch” technique. Branches of the RA were ligated with vascular clips. A subset of the radial artery grafts had the musculofascial tissue incised (with fasciotomy) to expose the aerolar tissue adjacent to the graft. […]
(§4) The rings were then incubated with increasing concentrations of PE (0.5 to 15 μM) or NE (0.5 to 15 μM). After the highest concentration of alpha adrenergic agent was achieved, 30 mM KCl was added to the bath to quantify the maximal nonreceptor-mediated constriction. […]
(§5) The changes in isometric force were quantified using an analog-to-digital converter sampling at 2 Hz. The responses were analyzed using a Windows-based videographics program ([…], Wake Forest University, Winston-Salem, N.C.). The force of contraction elicited by the exposure to increasing concentrations of PE and NE was expressed as a percentage of the maximal contraction generated by KCl in each ring. […]

[5] = system: human radial artery endothelium; assay: Endothelial function: relaxation to acetylcholine of U46619-precontracted human radial artery rings; type: cell-based; conditions: 12 μM ACh; without fasciotomy; PBZ at 1000 μM where used
Protocol: as §3, §4, §5

[6] = system: human radial artery segments; assay: Phenylephrine-induced vasoconstriction of human radial artery rings in organ chambers; type: cell-based; conditions: 15 μM PE
Protocol: Radial artery (RA) segments were obtained from patients having elective coronary artery bypass grafting with or without cardiopulmonary bypass at the Crawford Long Hospital of Emory University. A modified Allen's test was performed to assess the adequacy of collateral circulation to the hand preoperatively. The RA was harvested with its pedicle containing the venae comitantes, perivascular fat and areolar tissue (no fasciotomy) using a “no-touch” technique. Branches of the RA were ligated with vascular clips. A subset of the radial artery grafts had the musculofascial tissue incised (with fasciotomy) to expose the aerolar tissue adjacent to the graft. The RA was then placed in a solution containing 20 mL heparinized blood, 1.6 mL 1% lidocaine and 0.4 mL papaverine (30 mg/mL) for approximately 30 minutes. […] Prior to its placement in the aortocoronary position, a small segment of the RA was obtained and immediately placed in Krebs-Henseleit (K-H) buffer (118 mmol/L NaCl, 4.7 mmol/L KCl, 1.2 mmol/L KH2PO4, 1.2 mmol/L MgSO4, 2.5 mmol/L CaCl2, 12.5 mmol/L NaHCO3, and 10 mmol/L glucose) at 4° C., pH 7.4 and transported to the Cardiothoracic Research Laboratory.
The harvested radial artery segment with or without fasciotomy was placed into K-H buffer pH 7.4 with either 10, 100 or 1000 μM PBZ or vehicle. The radial artery was flushed intraluminally twice with this solution, once at the beginning and once at the end of a 30 minute incubation period, which approximates the time between RA harvest and placement in the aortocoronary position. In addition, Control RA segments were obtained prior to intraoperative pretreatment of the conduit with the papaverine/lidocaine solution and received no other treatment. The segments were prepared for placement in organ chambers by carefully skeletonizing them in cold K-H buffer and cutting them into rings three to five mm in length. The rings were then mounted on stainless steel hooks, connected to FT-03 force displacement transducers, and placed into Radnoti organ chambers (Radnoti Glass, Monrovia, Calif. containing 7 mL of oxygenated (95% O2, 5% CO2) K-H buffer at 37° C. and pH 7.4. Indomethacin (10 μmol/L) was added to the buffer to block responses to endogenous prostanoids. The rings were stabilized for one hour with frequent buffer changes and set to a predetermined tension that allowed 75% of maximal contraction to 30 mM potassium chloride (KCl).
The rings were then incubated with increasing concentrations of PE (0.5 to 15 μM) or NE (0.5 to 15 μM). After the highest concentration of alpha adrenergic agent was achieved, 30 mM KCl was added to the bath to quantify the maximal nonreceptor-mediated constriction. In randomly selected vessels, the integrity of the radial artery endothelium was also tested for its receptor-dependent relaxation response to incremental concentrations of acetylcholine (ACh), a stimulator of nitric oxide synthase. The rings were precontracted with the thromboxane A2 mimetic U46619 (1.4 nmol/L), and then exposed to increasing concentrations of Ach (1 nmol/L to 11.7 μmol/L) in the presence of 10 μM indomethacin.
The changes in isometric force were quantified using an analog-to-digital converter sampling at 2 Hz. The responses were analyzed using a Windows-based videographics program ([…], Wake Forest University, Winston-Salem, N.C.). The force of contraction elicited by the exposure to increasing concentrations of PE and NE was expressed as a percentage of the maximal contraction generated by KCl in each ring. The degree of relaxation after exposure to ACh was expressed as the percent tension reduction from the maximal force of contraction obtained from U46619.
If a significant difference between groups was assigned by ANOVA, a post-hoc Student-Newman-Keuls test was applied to locate the source of differences. A p value of <0.05 was considered to be statistically significant. All data are reported as means±the standard error of the mean.

[7] = 2 Hours drug-free storage after 30 min incubation with 10^−6M drug
[8] = 24 Hours drug-free storage after 30 min incubation with 10^−6M drug
[9] = 48 Hours drug-free storage after 30 min incubation with 10^−6M drug
[10] = 48 hours after 30 min pretreatment with 10^−6M drug
[11] = 2 hours after 30 min pretreatment with 10^−6M drug
[12] = 48 hours of storage, did not reach significance
[13] = after washing (2 hours) or 24 or 48 hours after the 30-minute pretreatment, 10^−6M
[14] = 24 hours after 30 min pretreatment with 10^−6M drug

Structure (SMILES)	Contraction response to phenylephrine from resting force (maximum response) [1, 7]	Contraction response to phenylephrine from resting force (maximum response) [1, 8]	Contraction response to phenylephrine from resting force (maximum response) [1, 9]	Constriction response to the maximum concentration of phenylephrine, % of KCl response [1, 10]	Contraction response to norepinephrine from resting force (maximum response) [2, 7]	Contraction response to norepinephrine from resting force (maximum response) [2, 8]	Contraction response to norepinephrine from resting force (maximum response) [2, 9]	Maximal constriction response to norepinephrine, % of KCl response [2, 11]	further results
CC(=O)C(C)=NO [BDM, 2,3-butadione monoxime]	8.35 ± 0.79 grams of tension	9.43 ± 0.64 grams of tension	7.01 ± 0.80 grams of tension	approximately 39%	5.69 ± 0.29 grams of tension	4.22 ± 0.75 grams of tension	7.01 ± 0.85 grams of tension	approximately 75%	Constrictor responses to phenylephrine compared with control segments (in words) ([1]; at 2 hours and 24 hours): very similar; Constriction responses to norepinephrine compared with control vessels (in words) ([2]; after 24 hours and 48 hours of drug-free storage): similar
COc1ccc(Cc2nccc3cc(OC)c(OC)cc23)cc1OC [papaverine]	14.29 ± 0.76 grams of tension	12.33 ± 0.76 grams of tension	10.46 ± 0.52 grams of tension		7.65 ± 0.72 grams of tension	10.37 ± 0.26 grams of tension	12.55 ± 1.22 grams of tension		Maximal constrictor response to phenylephrine compared with control vessels (in words) [1, 12]: paradoxical trend toward increased maximal constrictor response; Effect on phenylephrine-induced contraction (in words) [1, 13]: no inhibitory effect; Maximal constrictor response to norepinephrine compared with control vessels (in words) [2, 12]: paradoxical trend toward increased maximal constrictor response; Effect on norepinephrine-induced contraction (in words) [2, 13]: no inhibitory effect
CC(COc1ccccc1)N(CCCl)Cc1ccccc1 (centres unmarked) [phenoxybenzamine]	2.03 ± 0.13 ^b grams of tension	0.20 ± 0.01^b grams of tension	−1.08 ± 0.19^b grams of tension	−12%±4%	0.80 ± 0.05^b grams of tension	−0.58 ± 0.05^b grams of tension	−1.62 ± 0.36^b grams of tension	−7%±1%	Maximum relaxation response to the highest concentration of acetylcholine ([3]; after 24 hours of storage): 57%±6%; Maximum relaxation response to the highest concentration of acetylcholine ([3]; after 48 hours of storage): 30%±5%; Maximum relaxation response to the highest concentration of acetylcholine ([3]; at 2 hours of storage): 61%±5%; Effect on constriction to NE (in words) ([4]; PBZ at 10 μM): inhibited constriction to concentrations of NE greater than 7 μM; Effect on constrictor responses to NE (in words) ([4]; PBZ at 1000 μM, across all concentrations of NE): completely inhibited; Relaxation response to ACh (percent tension reduction from U46619 contraction) [5]: 81.0±11.8%; Attenuation of vasoconstriction response to PE, % of control ([6]; 10 μM PBZ): 63%; Contraction at the highest concentration of PE, % of the KCl response ([6]; 10 μM PBZ 30 min in addition to papaverine/lidocaine): 16.5±4.3%; Attenuation of vasoconstriction response to PE, % of control ([6]; 100 μM PBZ): 80%; Contraction at the highest concentration of PE, % of the KCl response ([6]; 100 μM PBZ 30 min in addition to papaverine/lidocaine): 8.7±5.1%; Attenuation of vasoconstriction response to PE, % of control ([6]; 1000 μM PBZ): 116%; Contraction at the highest concentration of PE, % of the KCl response ([6]; 1000 μM PBZ 30 min in addition to papaverine/lidocaine): −7.2±4.4%; Constriction response to the maximum concentration of phenylephrine, % of KCl response [1, 11]: 19%±8%; Constriction response to the maximum concentration of phenylephrine, % of KCl response [1, 14]: 1%±4%; Maximal constriction response to norepinephrine, % of KCl response [2, 14]: −5%±5%; Maximal constriction response to norepinephrine, % of KCl response [2, 10]: −20%±5%
